Drawing on PubChem BioAssay (NCI), this text covers GI50 and TGI for nine molecules.

Some test systems named below: KM12 colon; UO-31 renal; OVCAR-8 ovarian; DU-145 prostate; SNB-19 CNS; LOX IMVI melanoma; ACHN renal; UACC-257 melanoma; SK-MEL-2 melanoma; M14 melanoma.
Common to all, as to assay: NCI anticancer screen, dose series, 48 h

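1) Cells in 96-well plates. 2) Compound, 48 h, 5 concentrations. 3) Linear interpolation between surrounding doses. 4) Unreached endpoint = highest concentration. The concentration for 50% growth inhibition is given as GI50. At the TGI there is no net growth.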

As for `COC(=O)Cc1ccc(Oc2cnc3cc(F)c(F)cc3n2)cc1`, the GI50 with KM12 colon, with UO-31 renal, with OVCAR-8 ovarian, in the test on DU-145 prostate, in the test with SNB-19 CNS and in the test with LOX IMVI melanoma was greater than 100 µM each time. Moreover, the GI50 in the test on ACHN renal, in the test on UACC-257 melanoma and with SK-MEL-2 melanoma was greater than 100 µM in each case. Besides, the TGI with KM12 colon, in the test on UO-31 renal, in the test with OVCAR-8 ovarian, with DU-145 prostate, in the test with SNB-19 CNS and in the test on LOX IMVI melanoma was greater than 100 µM in each case. Moreover, the TGI in the test on ACHN renal, with UACC-257 melanoma and in the test with SK-MEL-2 melanoma was greater than 100 µM in each case.
In the case of `COc1cccc(NC(=O)c2sc3nc4c(cc3c2N)C(=O)CCC4)c1`, the GI50 with M14 melanoma is 0.0943 µM; with KM12 colon, 0.0569 µM; in the test with UO-31 renal, 0.449 µM; with OVCAR-8 ovarian, 0.402 µM; in the test on DU-145 prostate, 0.231 µM; in the test on SNB-19 CNS, 1.72 µM. In addition, the GI50 was 1.71 µM in the test with LOX IMVI melanoma, 0.568 µM in the test with ACHN renal and 0.0611 µM in the test with SK-MEL-2 melanoma. Besides, the TGI in the test with M14 melanoma, with KM12 colon, with UO-31 renal, in the test on OVCAR-8 ovarian, in the test with DU-145 prostate and in the test on SNB-19 CNS was greater than 100 µM throughout. The TGI with LOX IMVI melanoma, in the test on ACHN renal and in the test on SK-MEL-2 melanoma was greater than 100 µM in each case.
As to `N#CCN/C=C\C(=O)c1ccc(Cl)cc1`, the GI50 in the test with M14 melanoma is 20.3 µM; in the test with KM12 colon, 36.5 µM; in the test on UO-31 renal, 42.1 µM; in the test on OVCAR-8 ovarian, 38.4 µM; in the test with DU-145 prostate, 41.4 µM; with SNB-19 CNS, 31.4 µM. In addition, the GI50 in the test with LOX IMVI melanoma was 31.5 µM; in the test with UACC-257 melanoma it was 31.9 µM; in the test with SK-MEL-2 melanoma, 20 µM. In addition, the TGI in the test with M14 melanoma, with KM12 colon, in the test with UO-31 renal, in the test on OVCAR-8 ovarian, in the test on DU-145 prostate and in the test with SNB-19 CNS was greater than 100 µM throughout. Moreover, the figures for the TGI in the test on LOX IMVI melanoma, in the test with UACC-257 melanoma and in the test with SK-MEL-2 melanoma were greater than 100 µM, greater than 100 µM and 53.9 µM, respectively.
With `COc1ccc(/C=N\Nc2ccc([N+](=O)[O-])cn2)cc1OC`, the GI50 in the test with M14 melanoma is greater than 100 µM; in the test on UO-31 renal, 3.14 µM; with OVCAR-8 ovarian it was greater than 100 µM; in the test on DU-145 prostate, greater than 100 µM; in the test on SNB-19 CNS, 27 µM; in the test with LOX IMVI melanoma it was greater than 100 µM. In addition, the GI50 in the test with UACC-257 melanoma and with SK-MEL-2 melanoma was greater than 100 µM throughout. Further, the TGI with M14 melanoma, with UO-31 renal, with OVCAR-8 ovarian, in the test with DU-145 prostate, in the test on SNB-19 CNS and in the test with LOX IMVI melanoma was greater than 100 µM in each case. Also, the TGI in the test with UACC-257 melanoma and in the test on SK-MEL-2 melanoma was greater than 100 µM in each case.
With `O=c1c(Cl)c(Cl)c(=O)c2sc3cc(Cl)ccc3[nH]c1=2`, the TGI was greater than 100 µM in the test with M14 melanoma; greater than 100 µM with KM12 colon; 36 µM in the test with UO-31 renal; 35 µM in the test with OVCAR-8 ovarian; greater than 100 µM with DU-145 prostate; greater than 100 µM in the test on SNB-19 CNS. The TGI with ACHN renal is greater than 100 µM; in the test on UACC-257 melanoma, 35.3 µM; with SK-MEL-2 melanoma, greater than 100 µM.
On to `COc1ccc(OC)c(-c2cc(-c3ccc(Cl)cc3)nn2-c2ccc(S(=O)(=O)NC(C)=O)cc2)c1`, for which the GI50 was 3.04 µM in the test with M14 melanoma; 20.3 µM with KM12 colon; 34.8 µM in the test with UO-31 renal; 21 µM in the test with OVCAR-8 ovarian; 10.6 µM with SNB-19 CNS; 1.79 µM in the test on LOX IMVI melanoma. Moreover, the GI50 in the test on ACHN renal was 3.23 µM; in the test with UACC-257 melanoma, 16.8 µM; in the test on SK-MEL-2 melanoma it was 26.6 µM. Moreover, the TGI is 8.21 µM in the test on M14 melanoma; 46.2 µM in the test with KM12 colon; greater than 100 µM with UO-31 renal; 84.3 µM in the test on OVCAR-8 ovarian; 28.7 µM in the test on SNB-19 CNS; 3.65 µM in the test on LOX IMVI melanoma. For the same molecule, the results for the TGI with ACHN renal, with UACC-257 melanoma and in the test on SK-MEL-2 melanoma were 11.1 µM, 34.2 µM and 70 µM, respectively.
On to `CCN(CC)CCCC(C)N=C(C1=C(C(=NC(C)CCCN(CC)CC)c2cccc(OC)c2)C(=O)NC1=O)c1cccc(OC)c1` (stereo not given), for which the GI50 with M14 melanoma is 0.89 µM; in the test on KM12 colon, 1.81 µM; with UO-31 renal it was 1.39 µM; in the test with OVCAR-8 ovarian, 1.18 µM; in the test on DU-145 prostate, 1.54 µM; in the test on SNB-19 CNS, 3.71 µM. Also, the GI50 with LOX IMVI melanoma is 0.992 µM; in the test on UACC-257 melanoma, 0.952 µM. Also, the TGI was 1.68 µM with M14 melanoma; 6.36 µM in the test on KM12 colon; 4.27 µM in the test with UO-31 renal; 6.9 µM in the test on OVCAR-8 ovarian; 5.03 µM in the test on DU-145 prostate; 16.4 µM with SNB-19 CNS. In addition, the results for the TGI with LOX IMVI melanoma and in the test with UACC-257 melanoma were 2.06 µM and 1.75 µM, respectively.
`CC(=O)OC1CC2C(C)(C)C(=O)C=C[C@]2(C)C2CCC3(C)C(=CC(=O)C3c3ccoc3)[C@]12C` (stereo not given in full): the TGI in the test with M14 melanoma was 61.7 µM; in the test with KM12 colon it was 35.5 µM; in the test on UO-31 renal, 33 µM; with OVCAR-8 ovarian, 41 µM; with SNB-19 CNS it was 29.2 µM; with LOX IMVI melanoma it was 31.4 µM. The TGI with ACHN renal is 40.1 µM; with UACC-257 melanoma it was 48.2 µM; in the test with SK-MEL-2 melanoma it was 34.5 µM.
On to `SCCSCCCSCCS`, for which the TGI in the test with M14 melanoma, in the test on KM12 colon, in the test with UO-31 renal, with OVCAR-8 ovarian, in the test with DU-145 prostate and in the test with SNB-19 CNS was greater than 100 µM each time. For the same molecule, the TGI in the test on LOX IMVI melanoma and with UACC-257 melanoma was greater than 100 µM each time.
